What was measured:
Assay type in all cases: binding
Conditions in all cases: Compound Concentration 10 µM
[1] = molecular target: T1, panel of 442 kinases (Homo sapiens, UniProt O43293)
T1 construct: purchased KINOMEscan
Source text: (§1) We assessed the selectivity of members of this scaffold using the KINOMEscan methodology across a near comprehensive panel of 442 kinases [[18,27]].

[2] = molecular target: T2, panel of 442 kinases (Homo sapiens, UniProt O14757)
T2 construct: purchased KINOMEscan
T2 sequence (O14757 1-476): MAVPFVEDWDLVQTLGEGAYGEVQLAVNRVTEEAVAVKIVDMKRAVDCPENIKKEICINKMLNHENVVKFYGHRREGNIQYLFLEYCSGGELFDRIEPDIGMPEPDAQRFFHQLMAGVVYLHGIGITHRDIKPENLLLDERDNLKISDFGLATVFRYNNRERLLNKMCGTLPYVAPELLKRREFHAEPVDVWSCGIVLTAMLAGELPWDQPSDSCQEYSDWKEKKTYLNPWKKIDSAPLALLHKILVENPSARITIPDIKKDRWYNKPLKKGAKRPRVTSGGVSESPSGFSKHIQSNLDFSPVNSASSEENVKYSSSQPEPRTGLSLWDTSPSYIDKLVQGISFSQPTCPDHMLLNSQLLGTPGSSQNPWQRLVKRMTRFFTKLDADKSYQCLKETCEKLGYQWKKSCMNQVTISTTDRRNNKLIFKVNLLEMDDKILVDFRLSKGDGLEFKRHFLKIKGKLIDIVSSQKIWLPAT
Source text: as §1

[3] = molecular target: T3, panel of 442 kinases (Homo sapiens, UniProt P42336, H1047Y)
T3 construct: purchased KINOMEscan
T3 sequence (P42336 whole entry H1047Y): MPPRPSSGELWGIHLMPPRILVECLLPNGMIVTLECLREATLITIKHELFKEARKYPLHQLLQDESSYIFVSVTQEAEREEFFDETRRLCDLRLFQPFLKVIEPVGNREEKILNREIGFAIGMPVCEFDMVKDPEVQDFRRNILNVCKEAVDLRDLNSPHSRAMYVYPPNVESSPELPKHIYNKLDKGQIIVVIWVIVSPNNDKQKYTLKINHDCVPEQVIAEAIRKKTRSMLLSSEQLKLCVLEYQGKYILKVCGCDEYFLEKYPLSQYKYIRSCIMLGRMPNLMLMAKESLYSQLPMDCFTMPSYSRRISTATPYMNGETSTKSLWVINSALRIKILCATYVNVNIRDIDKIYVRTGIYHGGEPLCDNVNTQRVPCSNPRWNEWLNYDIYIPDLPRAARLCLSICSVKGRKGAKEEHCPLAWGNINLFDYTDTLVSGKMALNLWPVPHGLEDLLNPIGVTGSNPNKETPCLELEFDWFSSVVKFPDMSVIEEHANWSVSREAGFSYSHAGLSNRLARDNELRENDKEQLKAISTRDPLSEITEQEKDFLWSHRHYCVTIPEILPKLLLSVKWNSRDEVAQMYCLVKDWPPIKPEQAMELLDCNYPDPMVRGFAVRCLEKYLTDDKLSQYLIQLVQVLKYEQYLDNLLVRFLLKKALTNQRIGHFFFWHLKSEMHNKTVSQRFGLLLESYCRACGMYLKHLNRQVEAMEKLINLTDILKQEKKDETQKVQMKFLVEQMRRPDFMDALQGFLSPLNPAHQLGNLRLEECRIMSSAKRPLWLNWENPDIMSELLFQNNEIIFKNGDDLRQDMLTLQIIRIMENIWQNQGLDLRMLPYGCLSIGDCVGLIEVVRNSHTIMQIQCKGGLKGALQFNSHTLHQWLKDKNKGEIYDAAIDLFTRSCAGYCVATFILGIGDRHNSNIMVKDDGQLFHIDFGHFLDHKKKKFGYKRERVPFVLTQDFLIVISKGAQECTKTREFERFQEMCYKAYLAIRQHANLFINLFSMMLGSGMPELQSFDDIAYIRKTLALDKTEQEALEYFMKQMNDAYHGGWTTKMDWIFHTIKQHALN
Source text: as §1

T1 sequence (O43293 whole entry): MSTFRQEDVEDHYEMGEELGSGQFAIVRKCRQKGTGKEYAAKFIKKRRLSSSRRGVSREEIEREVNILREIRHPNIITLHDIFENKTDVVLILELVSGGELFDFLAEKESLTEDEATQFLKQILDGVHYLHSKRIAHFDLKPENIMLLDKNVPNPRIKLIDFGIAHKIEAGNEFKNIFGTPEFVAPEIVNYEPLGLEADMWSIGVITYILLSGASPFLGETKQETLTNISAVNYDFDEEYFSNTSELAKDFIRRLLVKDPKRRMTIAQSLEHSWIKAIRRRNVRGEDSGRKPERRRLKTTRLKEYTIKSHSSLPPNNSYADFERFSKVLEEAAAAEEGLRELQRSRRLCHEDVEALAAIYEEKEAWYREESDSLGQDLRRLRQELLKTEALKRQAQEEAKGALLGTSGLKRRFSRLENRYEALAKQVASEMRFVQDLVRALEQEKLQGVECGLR

SMILES: COc1cc(C(=O)N2CCC(N3CCN(C)CC3)CC2)ccc1Nc1ncc2c(n1)N(C)c1ccccc1C(=O)N2C [15 (LRRK2-IN-1)]
- KINOMEscan: DAPK3 [1]: 67
- KINOMEscan: CHEK1 [2]: 100
- KINOMEscan: PIK3CA(H1047Y) [3]: 71

SMILES: COc1cc(C(=O)N2CCC(N3CCN(C)CC3)CC2)ccc1Nc1ncc2c(n1)N1CCc3cccc(c31)C(=O)N2C [Compound 24]
- KINOMEscan: CHEK1 [2]: 85
- KINOMEscan: PIK3CA(H1047Y) [3]: 68

SMILES: COc1cc(C(=O)N2CCC(N3CCN(C)CC3)CC2)ccc1Nc1ncc2c(n1)N(C1CCCC1)c1ccccc1C(=O)N2C [Compound 25, 11-cyclopentyl-2-((2-methoxy-4-(4-(4-methylpiperazin-1-yl)piperidine-1-carbonyl)phenyl)amino)-5-methyl-5H-benzo[e]pyrimido[5,4-b][1,4]diazepin-6(11H)-one]
- KINOMEscan: DAPK3 [1]: 86
- KINOMEscan: CHEK1 [2]: 100
- KINOMEscan: PIK3CA(H1047Y) [3]: 100

SMILES: CCOc1cc(C(=O)N2CCC(N3CCN(C)CC3)CC2)ccc1Nc1ncc2c(n1)N(C1CCCC1)c1ccccc1C(=O)N2C [Compound 26]
- KINOMEscan: DAPK3 [1]: 100
- KINOMEscan: CHEK1 [2]: 100
- KINOMEscan: PIK3CA(H1047Y) [3]: 76
